Measurements: patent US12280065B2, “Pharmaceutical compounds and therapeutic methods” (RUTGERS, THE STATE UNIVERSITY OF NEW JERSEY, priority 2019, dated 2025)

How the values were obtained:
[1] = tested on: human tumor cell lines with different p53 status; assay: Cell growth inhibition assay (Calcein AM); type: cell-based; details: for EC50: cell growth, Calcein AM, incubation for 3 days, cell line not stated; for Fold (ZN-1/compound) / Fold (compound/ZN-1): ratio of EC50s
Procedure: Cell growth inhibition assay using human tumor cell lines with different p53 status (wildtype, null, p53-R175H or other zinc binding deficient mutants) were employed to determine if a test compound functions as a zinc metallochaperone to restore wildtype p53 functions. The cell growth inhibition assay was performed by Calcein AM assay (Trevigen). Five thousand cells per well were cultured in 96-well plate to reach the 50% confluence on the second day when treated with serial dilutions of the compounds. Growth was measured by Calcein AM assay (Trevigen) and Victor Plate reader instrument (PerkinElmer) after incubation for 3 days.

[2] = molecular target: T1, mutant p53-R175H protein (Homo sapiens, UniProt P04637, R175H); assay: Mutant p53 refolding assay (immunofluorescent staining with PAB1620 and PAB240); type: cell-based; details: p53-R175H cells (e.g. TOV 112D), treated 6 hours; data not shown
T1 construct: endogenous in cells; host or cells: TOV 112D (p53-R175H cells)
Procedure: An immunofluorescent staining using p53 conformation specific antibodies was used to determine if a test compound could induce the mutant p53 protein refolding to a wildtype conformation. The p53-R175H cells (e.g. TOV 112D) cultured in DMEM+10% FBS were treated with a test compound for 6 hours, then fixed and stained with the antibodies PAB1620 (recognizing WT conformation) and PAB240 (recognizing misfolded/unfolded conformation) respectively.

[3] = Colonogenic assay for long term cell killing; type: cell-based; details: ZN-6 at 10 nM; exposure up to 60 minutes, washout, crystal violet staining after 14-day incubation
Procedure: Cell growth inhibition for 3 days is an effect for a short term treatment. A colonogenic assay was used for the long term cell killing effect. One thousand cells were seeded in each well in 6-well plates. On the second day the cells were exposed with the dilutions of the compound for up to 60 minutes. After that the compound was washed away and the cells were refed with fresh medium without the compound. The colonies were visualized by crystal violet staining after 14-day incubation.

[4] = Solubility of zinc complexes; type: physicochemical
[5] = tested on: p53 target genes PUMA and GDF15 in p53-R175H cells; assay: Mutant p53 transcriptional reactivation assay by qRT-PCR of p53 target genes; type: cell-based
Procedure: p53 is a transcription factor. The reactivation of mutant p53 can be detected by regulation of the p53 target genes using quantitative reverse transcription PCR (qRT-PCR). The p53-R175H cells were treated with the compound for 6 hours and 24 hours followed by qRT-PCR to analyze the gene expression regulation. The two p53 target genes in this assay were PUMA and GDF15. For ZN-6, the expression levels were induced for 18-fold and 53-fold respectively (in parental cells). To double check the p53 dependence of the effect, the same assay applied to the p53 knockout cell line (KO, done by CRISPR-cas9 technology) and the p53 transient knockdown cells (KD, using siRNA knockdown). The PUMA induction was only 2× and 5× and GDF15 induction was only 1× and 5× in KO and KD cells, respectively (See FIG. 1).

[6] = p53 knockout cell line (KO, CRISPR-cas9)
[7] = p53 transient knockdown cells (KD, siRNA)
[8] = parental p53-R175H cells, 6 hours and 24 hours treatment

SMILES | EC50 [1] [nM] | Fold (ZN-1/compound) [1] | Fold (compound/ZN-1) [1] | Refolding of mutant p53 to wildtype conformation [2] | Earliest exposure time that showed effect on colony formation [3] [min] | Solubility in DMSO [4] [µg/mL] | Solubility in EtOH [4] [µg/mL] | Solubility in 5% EtOH, 4% Tween80, 4% Kolliphor, 87% water ([4]; 5% EtOH, 4% Tween80, 4% Kolliphor, 87% water) [µg/mL] | Solubility in 10% EtOH, 10% captisol, 80% water ([4]; 10% EtOH, 10% captisol, 80% water) [µg/mL] | Solubility in 50% EtOH 50% H2O ([4]; 50% EtOH, 50% H2O) [µg/mL] | GDF15 induction [5, 6] [×] | PUMA induction [5, 6] [×] | GDF15 induction [5, 7] [×] | PUMA induction [5, 7] [×] | GDF15 expression induction [5, 8] [fold] | PUMA expression induction [5, 8] [fold]
COCCOCc1ccnc(/C(C)=N/NC(=S)N(C)C)c1.COCCOCc1ccnc(/C(C)=N/NC(=S)N(C)C)c1.[Zn] [ZN-12, Zn[(E)-2-(1-(4-((2-methoxyethoxy)methyl)pyridin-2-yl)ethylidene)-N,N-dimethylhydrazine-1-carbothioamide]2] | 2.52 | 1.1 | 0.9 |  |  |  |  |  |  |  |  |  |  |  |  | 
C/C(=N\NC(=S)N1CCC1)c1ccccn1 [ZMC1, reference compound] |  |  |  | change the mutant p53-R175H protein from mutant conformation to WT conformation | 15 |  |  |  |  |  |  |  |  |  |  | 
C/C(=N\NC(=S)N(C)C)c1ncccc1CN1CCOCC1.C/C(=N\NC(=S)N(C)C)c1ncccc1CN1CCOCC1.[Zn] [ZN-7, Zn[(E)-N,N-dimethyl-2-(1-(3-(morpholinomethyl)pyridin-2-yl)ethylidene)hydrazine-1-carbothioamide]2] | 8.36 | 0.3 | 3.1 |  |  | >5000 | 1000 to 2000 |  |  |  |  |  |  |  |  | 
COCCOCc1cccnc1/C(C)=N/NC(=S)N(C)C.COCCOCc1cccnc1/C(C)=N/NC(=S)N(C)C.[Zn] [ZN-6, Zn[(E)-2-(1-(3-((2-methoxyethoxy)methyl)pyridin-2-yl)ethylidene)-N,N-dimethylhydrazine-1-carbothioamide]2] | 5.41 | 0.5 | 2.0 | change the mutant p53-R175H protein from mutant conformation to WT conformation | 15 | >10000 | >10000 | 1000 | 1000 | >5000 | 1 | 2 | 5 | 5 | 53 | 18
